Reference: PMC3921447, “Homologous and heterologous desensitization of guanylyl cyclase-B signaling in GH3 somatolactotropes” (Cell and Tissue Research, 2013)

Legend:
GC-B [1] = target: T1, GC-B (Rattus norvegicus, UniProt P16067); experiment: Effect of natriuretic peptide pre-treatment on CNP-stimulated (GC-B) cGMP accumulation in GH3 cells; assay type: cell-based; settings: 100 nM CNP pre-treatment, then 100 nM CNP 15 min with IBMX; ns, P > 0.05; Fig. 3a
T1 construct: rapid homologous desensitization of endogenous GC-B receptors in GH3 cells; endogenous in cells; host or cells: GH3 rat somatolactotrope cells
T1 sequence (P16067 17-1047): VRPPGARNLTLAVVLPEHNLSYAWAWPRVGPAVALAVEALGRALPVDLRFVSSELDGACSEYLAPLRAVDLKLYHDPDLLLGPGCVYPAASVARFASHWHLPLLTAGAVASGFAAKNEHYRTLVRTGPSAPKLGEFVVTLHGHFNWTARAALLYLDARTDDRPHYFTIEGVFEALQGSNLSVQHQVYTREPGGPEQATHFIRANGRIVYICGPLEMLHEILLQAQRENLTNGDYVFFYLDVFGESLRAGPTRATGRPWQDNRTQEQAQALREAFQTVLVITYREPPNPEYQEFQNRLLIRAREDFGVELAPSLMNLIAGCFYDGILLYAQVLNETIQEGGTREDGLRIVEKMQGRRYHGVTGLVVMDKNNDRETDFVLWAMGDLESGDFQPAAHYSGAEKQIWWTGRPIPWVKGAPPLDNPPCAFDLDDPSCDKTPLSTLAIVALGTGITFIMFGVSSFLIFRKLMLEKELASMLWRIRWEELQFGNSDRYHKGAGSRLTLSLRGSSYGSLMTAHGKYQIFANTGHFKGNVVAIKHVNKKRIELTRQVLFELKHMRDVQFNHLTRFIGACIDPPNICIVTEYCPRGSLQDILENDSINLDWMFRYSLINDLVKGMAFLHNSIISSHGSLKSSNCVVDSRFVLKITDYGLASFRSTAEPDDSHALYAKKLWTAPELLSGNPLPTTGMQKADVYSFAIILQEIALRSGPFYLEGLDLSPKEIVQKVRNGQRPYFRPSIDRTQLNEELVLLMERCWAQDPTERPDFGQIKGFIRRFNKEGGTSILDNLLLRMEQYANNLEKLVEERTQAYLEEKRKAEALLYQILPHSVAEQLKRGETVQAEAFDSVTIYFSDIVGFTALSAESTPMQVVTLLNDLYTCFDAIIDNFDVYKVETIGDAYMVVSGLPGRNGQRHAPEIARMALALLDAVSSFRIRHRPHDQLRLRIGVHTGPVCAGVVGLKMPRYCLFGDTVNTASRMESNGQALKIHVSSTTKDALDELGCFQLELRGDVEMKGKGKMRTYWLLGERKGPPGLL
Description: Having established that GC-B signaling but not that of GC-A receptors, underwent rapid homologous desensitization, we next examined the effect of prolonged exposure of each receptor to its specific ligand. GH3 cells pre-treated with either ANP or CNP for 0 (control) to 6 h reduced the response to a subsequent 15-min treatment of ANP or CNP (with IBMX). […] The amount of cGMP measured from the 15-min pre-treatment sample was reduced by 39.6 ± 0.002 % (***P < 0.001). This effect was maintained up to the 6-h pre-treatment with CNP, which was reduced by 37.9 ± 7.1 % compared with the control (***P < 0.001).
Fig. 3 Effect of chronic exposure to CNP and ANP on GC-B- and GC-A-dependent cGMP accumulation in GH3 cells. Cells were initially treated with (a) 100 nM CNP or (b) 100 nM ANP in PSS without IBMX for 0 to 6 h. The medium was removed and replaced with 100 nM CNP (a) or 100 nM ANP (b) for 15 min in the presence of 1 mM IBMX. […]
In similar experiments designed to examine the effect of ANP pre-exposure to GC-A activity, a significant reduction in cGMP accumulation was observed within 30 min of ANP pre-treatment (by 28.9 ± 3.1 % compared with the control, *P < 0.05). […] In order to test the receptor specificity of the observed down-regulation of GC-B upon pre-treatment with CNP and of GC-A upon pre-treatment with ANP, the effects of ANP on GC-B and CNP on GC-A desensitization were determined. […]

GC-B [2] = target: T1, GC-B; experiment: GC-B protein expression by Western blot in GH3 cells; assay type: cell-based; settings: 100 nM CNP, up to 24 h; n = 3; Fig. 4b
Description: GH3 cell lysates (from 1 × 10^6 cells) were prepared in lysis buffer (0.5 M TRIS pH 6.8, 10 % [v/v] glycerol, 1 % [w/v] SDS). Protein lysates were sonicated, boiled at 95 °C for 5 min, resolved by 10 % SDS-polyacrylamide gel electrophoresis, transferred to polyvivylidene difluoride membrane and probed for GC-B (1:2000 dilution) or β-actin (1:5000 dilution) expression. Appropriate horseradish-peroxidase-conjugated secondary antibodies were purchased from DAKO.
We next examined whether Npr2 or GC-B down-regulation (as determined by a reduction in Npr2 mRNA expression and or GC-B protein expression) mediated the inhibitory effects of sustained CNP exposure. The effect of CNP exposure on the expression of the endogenous Npr2 gene was examined by using qPCR. […] To establish whether down-regulation occurred at the protein level, total proteins were extracted from GH3 cells incubated for up to 24 h with 100 nM CNP.
Fig. 4 CNP fails to alter expression of Npr2 mRNA or GC-B protein in GH3 somatolactotrope cells. a GH3 cells were stimulated with 0 or 100 nM CNP for 24 h prior to extraction of total RNA, cDNA synthesis, and quantitative PCR for endogenous Npr2 expression. […] Blots were stripped and re-probed for β-actin. Panels are representative of three independent experiments (n = 3)

Structure (SMILES): CC[C@H](C)[C@@H]1NC(=O)[C@H](CCCNC(=N)N)NC(=O)[C@H](CC(=O)O)NC(=O)[C@H](CC(C)C)NC(=O)[C@H](CCCCN)NC(=O)[C@H](CC(C)C)NC(=O)CNC(=O)[C@H](Cc2ccccc2)NC(=O)[C@@H](NC(=O)CNC(=O)[C@H](CCCCN)NC(=O)[C@H](CO)NC(=O)[C@H](CC(C)C)NC(=O)CN)CSSC[C@@H](C(=O)O)NC(=O)CNC(=O)[C@H](CC(C)C)NC(=O)CNC(=O)[C@H](CO)NC(=O)[C@H](CCSC)NC(=O)[C@H](CO)NC(=O)CNC1=O [CNP, C-type natriuretic peptide]
- difference in reduction of cGMP between 15-min and 6-h pre-treatments (GC-B [1]): did not significantly differ between the 15-min to 6-h pre-treatments
- GC-B protein expression (GC-B [2]): failed to alter expression levels
